Measured values published in patent publication US6767900B2, “Phosphonate nucleotide compound” (Mitsubishi Pharma Corporation, priority 2000, dated 2004).

Tests used:
Hepatitis B Virus (HBV) = assay: Inhibitory effect against growth of hepatitis B virus (HBV-DNA synthesis in HB611 cells, Southern blotting); assay type: cell-based; conditions: read-out: 50% inhibition concentration against HBV-DNA synthesis; HB611 cells (recombinant human hepatoma cells producing HBV); test compound 0.005 to 100 μM from day 8; DNA collected day 17
HB611 cells = assay: Cytotoxicity to HB611 cells; assay type: cell-based, human
Procedure: The inhibitory effect of the compound of the present invention against the growth of an HBV was measured by a known method (K. Ueda, et al., Virology, 169, 213-216 (1989)). 2×10^4 of HB611 cells (recombinant human hepatoma cells producing HBV) were cultured at 37° C. in Dulbecco ME medium containing 10% fetal bovine serum, streptomycin (100 μg/ml), penicillin (100IU/ml) and Genetisin (trade name, antibiotic by LifeTechnologies) (0.2 mg/ml). At the second day and the fifth day of culturing, the medium was replaced by a fresh medium, and then at the eighth day, the eleventh day and the fourteenth day of culturing, the medium was replaced with a medium containing 0.005 to 100 μM (final concentration) of the test compound, and at the seventeenth day of culturing, DNA of the cells were collected. […] Moreover, a concentration of the compounds required to kill 50% of HB611 cells was determined.
Each compound number in the table corresponds to the compound number in Table 1. For reference, the results of the evaluation of the compounds described in EP785208 are also shown.

Nc1nc(Sc2ccc(O)cc2)c2ncn(CCOCP(=O)(OCC(F)(F)F)OCC(F)(F)F)c2n1 [Compound No. 3, 2-amino-9-[2-(phosphonomethoxy)ethyl]-6-(4-hydroxyphenylthio)purine bis(2,2,2-trifluoroethyl) ester]
IC50 (Hepatitis B Virus (HBV)): 50 nM
Cytotoxic concentration required to kill 50% of HB611 cells (HB611 cells): >1,000 μM
